“And” between values parts separate entries of the source, which are not always exact repeats. Identical values can stand only once.
Legend:
BCL-XL in BM KSL cells = assay: BCL-XL protein intracellular flow cytometry of BM KSL cells; type: cell-based, mouse; settings: BM KSL cells, 24 hours following 300 cGy, 43 ng/ml BVD523
Method: (§1) Intracellular flow cytometric analysis was performed on irradiated (300 cGy) or non-irradiated, sorted KSL cells after treatment with 1 μg/mL DJ001 or control (equal volumes of DMSO) for 24 h. At 24 h after irradiation, cells were fixed with 4% PFA for 10 min, followed by permeabilization using 0.25% saponin in PBS. Cells were washed again and stained with antibody at the recommended concentrations for 30 min at RT. Intracellular antibodies and phospho-flow antibodies used were as follows: FITC-conjugated anti-BCL-XL (Abcam, #26148, 1:100), active RAC1-GTP antibody (NewEast Biosciences, #26903, 1:100) and anti-PAK1 (phospho S144) + PAK2 (phospho S141) + PAK3 (phospho S154) antibody (Abcam, #40795, 1:100), and FITC-conjugated goat anti-rabbit IgG H&L (Abcam, #97050, 1:200).

BM KSL cells [1] = assay: CFC assay from 300 cGy-irradiated BM KSL cells, 3 day culture; type: cell-based, mouse; design: CFU-GM / BFU-E: unit not given here
Method: CFC assays (colony-forming unit-granulocyte monocyte), burst-forming unit-erythroid, and CFU-GEMM were performed using MethoCult GF M3434 (Stemcell Technologies)[6]. […] Recombinant mouse SCF, Flt3 ligand, and TPO were purchased from R&D Systems. For competitive repopulation assays, BM cells were isolated from donor 10–12-week-old female CD45.2^+ mice. Recipient 10-week-old female CD45.1^+ B6.SJL mice were irradiated with 950 cGy TBI using a Cs137 irradiator and donor BM cells were administered via tail vein injection along with a competing dose of 1 × 10^5 non-irradiated host BM cells. Multilineage donor hematopoietic cell engraftment was measured in the PB by flow cytometry.

p-PAK1 in BM KSL cells = assay: p-PAK1 phospho-flow cytometry of BM KSL cells; type: cell-based, mouse; settings: BM KSL cells, DJ001 + 6 μg/mL EHT1864
Method: as §1

BM KSL cells [2] = assay: Annexin V/7AAD apoptosis assay of BM KSL cells from mice 24 h post 500 cGy TBI; type: in vivo, mouse
Method: (§2) Eight- to ten-week-old female C57BL/6 mice were irradiated with 500 cGy TBI followed by subcutaneous injections of 5 mg/kg DJ001 or vehicle, or 5 mg/kg DJ001 plus 40 mg/kg EHT1864. Twenty four hours after irradiation, mice were killed to collect BM cells for Annexin V apoptosis analysis. BM cells were stained with APC-Cy7-conjugated anti-mouse Sca1 (BD Biosciences, #560654, 1:100), PE-conjugated anti-ckit (BD Biosciences, #553355, 1:100), and V450 lineage cocktail (BD Biosciences, #561301, 1:10) antibodies for 30 min at 4 °C. Cells were then resuspended in 1× Annexin V binding buffer and then stained with FITC-conjugated anti-Annexin V antibody (BD Biosciences, #556547,1:50) and 7AAD antibody (BD Biosciences, #559925, 1:40)[68]. For in vitro human BM cell apoptosis assays, isolated human BM CD34^+ cells were plated into 96-well plates and then irradiated with 300 cGy. Immediately after irradiation, cells were treated with 5 μg/mL DJ001 or vehicle for 24 h and then collected for Annexin V cell apoptosis analysis. For cell cycle analysis, BM KSL cells were irradiated at 300 cGy and then treated with 1 μg/mL DJ001 or vehicle for 36 h. Subsequently, cells were resuspended in 200 μL of PBS, fixed with 1 mL of ice-cold fixation solution (0.25% Saponin, 2.5% PFA, 2% fetal calf serum (FCS) in PBS), and incubated for 30 min on ice. Cells were washed in Saponin buffer (0.25% Saponin, 2% FCS in PBS) and resuspended in 200 μL of Saponin buffer containing 20 μL of FITC-conjugated anti-Ki67 antibody (BD Biosciences, #556026, 1:10) and 1 μL of RNase (Qiagen, #19101, 100 mg/mL). After 30 min of incubation, cells were washed in Saponin buffer and resuspended for flow analysis in 200 μL of Saponin buffer containing 5 μL 7AAD (BD Biosciences, #559925, 1:40).

BM KSL cells [3] = assay: Cell cycle analysis (Ki67/7AAD) of BM KSL cells; type: cell-based, mouse; settings: BM KSL cells following irradiation
Method: as §2

C57BL/6 mice = assay: Survival study after 750 cGy TBI; type: in vivo, mouse; settings: 750 cGy, systemic EHT1864
Method: For survival studies, 10-week-old female C57BL/6 mice were irradiated with 750 cGy TBI, which is lethal for ~50% of C57BL/6 mice by day + 30 (LD50/30), using a Shepherd Cesium-137 irradiator. Twenty four hours post irradiation, mice were administered daily subcutaneous injections of 5 mg/kg DJ001 or DJ009, or vehicle in a volume of 100 μL for 10 days. DJ001 or DJ009 injections were prepared in PBS, 0.5% Tween 80, and 10% DMSO. Corresponding vehicle injections contained PBS, 10% DMSO, and 0.5% Tween 80. PB complete blood counts were measured using a Hemavet 950 instrument (Drew Scientific) at day + 10 post irradiation. For hematopoietic analysis, BM cells were collected at day + 10 post irradiation. To study whether DJ001 increased survival rates through activation of RAC signaling, the RAC inhibitor, EHT1864 (Selleckchem), was dissolved in PBS and administered intraperitoneally, 40 mg/kg every other day, to 750 cGy-irradiated mice until day + 10.

catalytic domain of PTPσ = system: catalytic domain of PTPσ; design: method as in PMID 23185579; settings: cited from earlier work

## CC(C)Nc1cc(-c2c[nH]c(C(=O)N[C@H](CO)c3cccc(Cl)c3)c2)c(Cl)cn1 [BVD523, reference compound]
BCL-XL in BM KSL cells
  effect on DJ001-mediated increase in BCL-XL protein levels: blocked DJ001-mediated increase in BCL-XL protein levels
BM KSL cells [1]; DJ001 + 43 ng/mL BVD523, 300 cGy, day +3
  effect on hematopoietic progenitor cell recovery following irradiation: abrogated hematopoietic progenitor cell recovery

## O=c1cc(CN2CCOCC2)occ1OCCCCCSc1ccnc2cc(C(F)(F)F)ccc12 [EHT1864, reference compound]
p-PAK1 in BM KSL cells
  effect on DJ001-mediated phosphorylation of PAK1: abrogated DJ001-mediated phosphorylation of PAK1
BM KSL cells [1]; BM KSL cells irradiated with 300 cGy in vitro, 6 µg/ml EHT1864
  effect on DJ001-mediated CFC generation: inhibited DJ001-mediated CFC generation
BM KSL cells [1]; Supplementary Figure 7d
  BFU-E: 1 and 2
  CFU-GM: 9 and 6 and 11 and 10 and 12
BM KSL cells [2]; 24 h post 500 cGy TBI, individual mice
  Figure 3e: Annexin V/7AAD apoptosis of BM KSL cells: 24.85 and 19.31 and 21.21 and 22.28
BM KSL cells [2]; irradiated mice
  effect on DJ001-mediated anti-apoptotic effects on BM KSL cells: abrogated DJ001-mediated anti-apoptotic effects
BM KSL cells [3]
  effect on DJ001-mediated induction of cell cycle progression: suppressed DJ001-mediated induction of cell cycle progression
C57BL/6 mice
  effect on DJ001-mediated increase in survival of irradiated mice: completely blocked DJ001-mediated increase in survival

## COc1ccc2c(c1)/C(=C/c1cnc[nH]1)C(=O)N2 [SU9516, reference compound]
BM KSL cells [3]
  effect on DJ001-mediated induction of cell cycle progression: suppressed DJ001-mediated induction of cell cycle progression

## O=C(/C=C\Nc1cc([N+](=O)[O-])ccc1O)c1ccc(Cl)c(Cl)c1 [compound 5075, reference compound]
Catalytic domain of PTPσ
  reported properties against the catalytic domain of PTPσ: binding and inhibitory properties
